Laboratory results as given in patent US8119695B2, “Compounds and methods for treating breast cancer and other diseases” (City of Hope, priority 2003, dated 2012).

Assays:
Format in all cases: cell-based
MH100x4 = MH100x4 luciferase reporter without receptor; details: Table 3, dose 2.5 (unit not given)
From the text: (§1) MH100x4 is a luciferase reporter with four copies of a GAL4 […] response element. GAL-L refers to the ligand-binding domain of the indicated receptor fused to the C-terminus of the GAL4 DNA binding domain.

ERRs = assay: repression / antagonism of ERRs; details: result in words
ERRα (GAL-ERRa) = assay: MH100x4 luciferase reporter with GAL-ERRa; parameters: Reporter Activity: unit not given here; details: Table 3, dose 2.5 (unit not given)
From the text: as §1

ERRβ (GAL-L-ERRb) = biological target: T1, ERRβ (GAL-L-ERRb) (Homo sapiens, UniProt O95718); assay: MH100x4 luciferase reporter with GAL-L-ERRb; parameters: Reporter Activity: unit not given here; details: Table 3, dose 2.5 (unit not given)
T1 construct: expressed in transfected cells
T1 sequence (O95718 208-432 limits assumed): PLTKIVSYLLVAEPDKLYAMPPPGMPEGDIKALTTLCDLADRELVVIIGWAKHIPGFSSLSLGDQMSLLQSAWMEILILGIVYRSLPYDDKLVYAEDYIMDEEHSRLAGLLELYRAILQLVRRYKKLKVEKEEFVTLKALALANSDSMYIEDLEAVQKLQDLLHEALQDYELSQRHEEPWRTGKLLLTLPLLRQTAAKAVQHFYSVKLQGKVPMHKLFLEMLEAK
From the text: as §1

ERRγ (GAL-ERRg) = assay: MH100x4 luciferase reporter with GAL-ERRg; parameters: Reporter Activity: unit not given here; details: Table 3, dose 2.5 (unit not given)
From the text: as §1

## Oc1ccc(C(=C(CCCCl)c2ccccc2)c2ccc(O)cc2)cc1 [DY31]
MH100x4; None 0.57
  Reporter Activity: 0.4
MH100x4; None 1
  Fold Activation: 0.7
ERRs
  repression of ERRs: does not repress ERRs
ERRα (GAL-ERRa); None 1
  Fold Activation: 1.06
ERRα (GAL-ERRa); None 8.18
  Reporter Activity: 8.71
ERRβ (GAL-L-ERRb); None 1
  Fold Activation: 0.74
ERRβ (GAL-L-ERRb); None 2.38
  Reporter Activity: 1.75
ERRγ (GAL-ERRg); None 1
  Fold Activation: 0.53
ERRγ (GAL-ERRg); None 2.2
  Reporter Activity: 1.16
